“And” between values parts separate entries of the source, which are not always exact repeats. Equal values may be shown once. Results filed as inconclusive are left out.
system: SK-MEL-5 DCT mRNA qPCR, delta-delta-Ct, overnight; test: suppression of MITF target gene DCT mRNA, dose response, orthogonal assay for MITF inhibitor project, cell-based, SK-MEL-5, RT-qPCR, dry powder samples (AID 651771)

CC(C)N1CCN(C2=C(Nc3ccc(F)cc3F)C(=O)c3ccccc3C2=O)CC1 and CCN1CCN(C2=C(Nc3ccc(F)cc3F)C(=O)c3ccccc3C2=O)CC1 are within 1.5-fold of each other in AC40: 3670 nM for the first, 4780 nM for the second.

Going from NC1=C(NC(=O)c2ccccc2)C(=O)c2ccccc2C1=O to O=C(NC1=C(Cl)C(=O)c2ccccc2C1=O)c1ccccc1, the AC40 falls from 1730 nM to 336 nM (5.1-fold).

COC1=C(NS(=O)(=O)c2ccc(Br)cc2)C(=O)c2ccccc2C1=O and NC1=C(NS(=O)(=O)c2ccc(Br)cc2)C(=O)c2ccccc2C1=O are within 1.5-fold of each other in AC40: 8650 nM for the first, 12800 nM for the second.

Going from O=C1C=C(NS(=O)(=O)c2ccccc2)C(=O)c2ccccc21 to O=C1C=C(NS(=O)(=O)c2ccc(Br)cc2)C(=O)c2ccccc21, the AC40 rises from 4060 nM to 7250 nM (1.8-fold).

Compared with Cc1nc2ccccc2n1/N=C/c1ccc([N+](=O)[O-])s1, Cc1ccc(NC2=CC(=O)c3ccccc3C2=O)cc1 is 5.6-fold lower in AC40: 1540 nM for the first, 277 nM for the second.

Going from O=C1C=C(NS(=O)(=O)c2cccs2)C(=O)c2ccccc21 to NC1=C(NS(=O)(=O)c2cccs2)C(=O)c2ccccc2C1=O, the AC40 falls from 4640 nM to 2010 nM (2.3-fold).

COc1ccc(NC2=C(N3CCCCC3)C(=O)c3ccccc3C2=O)cc1 and O=C1C(Nc2ccc(Br)cc2)=C(N2CCCCC2)C(=O)c2ccccc21 are within 1.5-fold of each other in AC40: 12800 nM for the first, 12600 nM for the second.

Compared with COC1=C(Nc2ccccc2)C(=O)c2ccccc2C1=O, O=C1C(Nc2ccccc2)=C(c2ccccc2)C(=O)c2ccccc21 is 12-fold higher in AC40: 838 nM for the first, 10400 nM for the second.

C=CCNC1=C(Cl)C(=O)c2ccccc2C1=O and NC1=CC(=O)c2ccccc2C1=O are within 1.5-fold of each other in AC40: 1000 nM for the first, 966 nM for the second.

Compared with NS(=O)(=O)c1ccc(NC2=CC(=O)c3ccccc3C2=O)cc1, O=C1C=C(Nc2ccc([N+](=O)[O-])c(C(F)(F)F)c2)C(=O)c2ccccc21 is 19-fold higher in AC40: 55.5 nM for the first, 1050 nM for the second.

Compared with O=C1C(Nc2ccc(Cl)cc2)=C(N2CCCC2)C(=O)c2ccccc21, CC(C)N1CCN(C2=C(Nc3ccc(F)cc3)C(=O)c3ccccc3C2=O)CC1 is 3.3-fold lower in AC40: 9530 nM for the first, 2900 nM for the second.

First: CN1CCN(C2=C(NS(=O)(=O)c3ccc(Br)s3)C(=O)c3ccccc3C2=O)CC1
Second: CCN1CCN(C2=C(NS(=O)(=O)c3ccc(Br)cc3)C(=O)c3ccccc3C2=O)CC1
The AC40 of the first is 2-fold lower: 1680 nM for the first, 3380 nM for the second.

First: CCN1CCN(C2=C(NC(=O)c3ccccc3)C(=O)c3ccccc3C2=O)CC1
Second: NC1=C(NS(=O)(=O)c2ccccc2)C(=O)c2ccccc2C1=O
The AC40 of the first is 3.4-fold lower: 884 nM for the first, 3020 nM for the second.

Compound COC1=C(NS(=O)(=O)c2cccs2)C(=O)c2ccccc2C1=O has an AC40 of 9010 nM.

With O=C1C=C(Nc2ccccc2)C(=O)c2ccccc21 the AC40 was 302 nM and 325 nM.

Reference: PubChem BioAssay AID651771 (Broad Institute, 2012)
